Measurements taken from ChEMBL document CHEMBL1138895, “Synthesis and antibacterial activity of nocathiacin I analogues” (Bioorg Med Chem Lett, 2006).
≈ marks a conversion by molar mass, not a printed value.

Tests used:
[1] = tested on: Streptococcus pneumoniae; assay: Antibacterial activity against penicillin resistant Streptococcus pneumoniae A28272; type: functional
[2] = tested on: Staphylococcus aureus; assay: Antibacterial activity against methicillin-sensitive Staphylococcus aureus A15090; type: functional
[3] = Solubility at pH 3.8; type: physicochemical; details: buffer
[4] = tested on: Enterococcus faecalis; assay: Antibacterial activity against […] A20688; type: functional
[5] = species on record: Mus musculus; assay: Activity against Staphylococcus aureus A15090 infected ICR mouse after 8 days; type: functional; details: 192 h, read-out: PD50
[6] = Solubility at pH 3.4; type: physicochemical; details: buffer
[7] = Solubility at pH 3.1; type: physicochemical; details: buffer
[8] = Solubility at pH 4.0; type: physicochemical; details: buffer
[9] = Solubility at pH 3.3; type: physicochemical; details: buffer
[10] = Solubility at pH 2.8; type: physicochemical; details: buffer
[11] = Solubility at pH 8.1; type: physicochemical; details: buffer
[12] = Solubility at pH 8.4; type: physicochemical; details: buffer
[13] = Solubility at pH 3.5; type: physicochemical; details: buffer
[14] = Solubility at pH 8.7; type: physicochemical; details: buffer

Structure (SMILES) | MIC [1] | MIC [2] | MIC [4] | ED50 [5] | further results
CO/C(C)=C1/NC(=O)[C@H]([C@@H](C)O)NC(=O)c2csc(n2)-c2cc(O)c(-c3nc(C(=O)N[C@@H](C)C(=O)NCc4cc(O)cc(O)c4)cs3)nc2-c2csc(n2)[C@@H]2COC(=O)c3c4c5c(cccc5n3O)COC(=O)[C@@H](O[C@H]3C[C@](C)(O)[C@H](N(C)C)[C@H](C)O3)[C@@H](OC4)[C@H](NC(=O)c3csc1n3)c1nc(cs1)C(=O)N2 | 0.25 µg/mL (≈ 0.16 µM) | 1 µg/mL (≈ 0.64 µM) | 2 µg/mL (≈ 1.28 µM) | – | solubility [3]: < 0.3 µg/mL
CO/C(C)=C1/NC(=O)[C@H]([C@@H](C)O)NC(=O)c2csc(n2)-c2cc(O)c(-c3nc(C(=O)N[C@@H](C)C(=O)N(CCO)CCO)cs3)nc2-c2csc(n2)[C@@H]2COC(=O)c3c4c5c(cccc5n3O)COC(=O)[C@@H](O[C@H]3C[C@](C)(O)[C@H](N(C)C)[C@H](C)O3)[C@@H](OC4)[C@H](NC(=O)c3csc1n3)c1nc(cs1)C(=O)N2 | 0.25 µg/mL (≈ 0.164 µM) | 0.25 µg/mL (≈ 0.164 µM) | 0.5 µg/mL (≈ 0.327 µM) | > 10 mg/kg | solubility [6]: > 1200 µg/mL
CO/C(C)=C1/NC(=O)[C@H]([C@@H](C)O)NC(=O)c2csc(n2)-c2cc(O)c(-c3nc(C(=O)N[C@@H](C)C(=O)N(C)CCO)cs3)nc2-c2csc(n2)[C@@H]2COC(=O)c3c4c5c(cccc5n3O)COC(=O)[C@@H](O[C@H]3C[C@](C)(O)[C@H](N(C)C)[C@H](C)O3)[C@@H](OC4)[C@H](NC(=O)c3csc1n3)c1nc(cs1)C(=O)N2 | 0.003 µg/mL (≈ 0.002 µM) | 0.06 µg/mL (≈ 0.0401 µM) | 0.03 µg/mL (≈ 0.02 µM) | 1.65 mg/kg | solubility [7]: 2300 µg/mL (≈ 1540 µM); solubility [8]: 2300 µg/mL (≈ 1540 µM)
CO/C(C)=C1/NC(=O)[C@H]([C@@H](C)O)NC(=O)c2csc(n2)-c2cc(O)c(-c3nc(C(=O)N[C@@H](C)C(=O)N4CCC(P(=O)(OC)OC)CC4)cs3)nc2-c2csc(n2)[C@@H]2COC(=O)c3c4c5c(cccc5n3O)COC(=O)[C@@H](O[C@H]3C[C@](C)(O)[C@H](N(C)C)[C@H](C)O3)[C@@H](OC4)[C@H](NC(=O)c3csc1n3)c1nc(cs1)C(=O)N2 | 0.015 µg/mL (≈ 0.00928 µM) | 0.015 µg/mL (≈ 0.00928 µM) | 0.03 µg/mL (≈ 0.0186 µM) | – | solubility [9]: > 3000 µg/mL
CO/C(C)=C1/NC(=O)[C@H]([C@@H](C)O)NC(=O)c2csc(n2)-c2cc(O)c(-c3nc(C(=O)N[C@@H](C)C(=O)NCCCOC4O[C@H](CO)[C@@H](O)[C@H](O)[C@H]4O)cs3)nc2-c2csc(n2)[C@@H]2COC(=O)c3c4c5c(cccc5n3O)COC(=O)[C@@H](O[C@H]3C[C@](C)(O)[C@H](N(C)C)[C@H](C)O3)[C@@H](OC4)[C@H](NC(=O)c3csc1n3)c1nc(cs1)C(=O)N2 (stereo not given in full) | 1 µg/mL (≈ 0.602 µM) | 4 µg/mL (≈ 2.41 µM) | 8 µg/mL (≈ 4.82 µM) | – | solubility [10]: > 2000 µg/mL
CO/C(C)=C1/NC(=O)[C@H]([C@@H](C)O)NC(=O)c2csc(n2)-c2cc(O)c(-c3nc(C(=O)N[C@@H](C)C(=O)NCCCP(=O)([O-])O)cs3)nc2-c2csc(n2)[C@@H]2COC(=O)c3c4c5c(cccc5n3O)COC(=O)[C@@H](O[C@H]3C[C@](C)(O)[C@H](N(C)C)[C@H](C)O3)[C@@H](OC4)[C@H](NC(=O)c3csc1n3)c1nc(cs1)C(=O)N2.[Na+] | 0.25 µg/mL | 8 µg/mL | 32 µg/mL | – | solubility [11]: > 1700 µg/mL
CO/C(C)=C1/NC(=O)[C@H]([C@@H](C)O)NC(=O)c2csc(n2)-c2cc(O)c(-c3nc(C(=O)N[C@@H](C)C(=O)NCCCO)cs3)nc2-c2csc(n2)[C@@H]2COC(=O)c3c4c5c(cccc5n3O)COC(=O)[C@@H](O[C@H]3C[C@](C)(O)[C@H](N(C)C)[C@H](C)O3)[C@@H](OC4)[C@H](NC(=O)c3csc1n3)c1nc(cs1)C(=O)N2 | 0.007 µg/mL (≈ 0.00467 µM) | 0.06 µg/mL (≈ 0.0401 µM) | 0.03 µg/mL (≈ 0.02 µM) | 1.25 mg/kg | solubility [10]: 2700 µg/mL (≈ 1800 µM)
CO/C(C)=C1/NC(=O)[C@H]([C@@H](C)O)NC(=O)c2csc(n2)-c2cc(O)c(-c3nc(C(=O)N[C@@H](C)C(=O)NCCS(=O)(=O)O)cs3)nc2-c2csc(n2)[C@@H]2COC(=O)c3c4c5c(cccc5n3O)COC(=O)[C@@H](O[C@H]3C[C@](C)(O)[C@H](N(C)C)[C@H](C)O3)[C@@H](OC4)[C@H](NC(=O)c3csc1n3)c1nc(cs1)C(=O)N2 | 0.03 µg/mL (≈ 0.0194 µM) | 0.25 µg/mL (≈ 0.162 µM) | 0.25 µg/mL (≈ 0.162 µM) | > 10 mg/kg | solubility [12]: > 2100 µg/mL
CO/C(C)=C1/NC(=O)[C@H]([C@@H](C)O)NC(=O)c2csc(n2)-c2cc(O)c(-c3nc(C(=O)N[C@@H](C)C(=O)NCCN(C)C)cs3)nc2-c2csc(n2)[C@@H]2COC(=O)c3c4c5c(cccc5n3O)COC(=O)[C@@H](O[C@H]3C[C@](C)(O)[C@H](N(C)C)[C@H](C)O3)[C@@H](OC4)[C@H](NC(=O)c3csc1n3)c1nc(cs1)C(=O)N2 | 0.125 µg/mL (≈ 0.0827 µM) | 0.125 µg/mL (≈ 0.0827 µM) | 0.25 µg/mL (≈ 0.165 µM) | – | solubility [13]: > 2400 µg/mL
CO/C(C)=C1/NC(=O)[C@H]([C@@H](C)O)NC(=O)c2csc(n2)-c2cc(O)c(-c3nc(C(=O)N[C@@H](C)C(=O)NCCCN4CCCC4)cs3)nc2-c2csc(n2)[C@@H]2COC(=O)c3c4c5c(cccc5n3O)COC(=O)[C@@H](O[C@H]3C[C@](C)(O)[C@H](N(C)C)[C@H](C)O3)[C@@H](OC4)[C@H](NC(=O)c3csc1n3)c1nc(cs1)C(=O)N2 | 0.25 µg/mL (≈ 0.161 µM) | 0.25 µg/mL (≈ 0.161 µM) | 0.5 µg/mL (≈ 0.322 µM) | – | solubility [9]: > 2600 µg/mL
CO/C(C)=C1/NC(=O)[C@H]([C@@H](C)O)NC(=O)c2csc(n2)-c2cc(O)c(-c3nc(C(=O)N[C@@H](C)C(=O)NCCc4ccc(S(=O)(=O)O)cc4)cs3)nc2-c2csc(n2)[C@@H]2COC(=O)c3c4c5c(cccc5n3O)COC(=O)[C@@H](O[C@H]3C[C@](C)(O)[C@H](N(C)C)[C@H](C)O3)[C@@H](OC4)[C@H](NC(=O)c3csc1n3)c1nc(cs1)C(=O)N2 | 0.125 µg/mL (≈ 0.077 µM) | 0.5 µg/mL (≈ 0.308 µM) | 1 µg/mL (≈ 0.616 µM) | > 10 mg/kg | solubility [14]: > 1200 µg/mL
C=C(NC(=O)c1csc(-c2nc3c(cc2O)-c2nc(cs2)C(=O)N[C@@H]([C@@H](C)O)C(=O)N/C(=C(\C)OC)c2nc(cs2)C(=O)N[C@@H]2c4nc(cs4)C(=O)N[C@@H](COC(=O)c4c5c6c(cccc6n4O)COC(=O)[C@@H](O[C@H]4C[C@](C)(O)[C@H](N(C)C)[C@H](C)O4)[C@H]2OC5)c2nc-3cs2)n1)C(N)=O [MJ347-81F4 A] | 0.002 µg/mL (≈ 0.00139 µM) | 0.007 µg/mL (≈ 0.00487 µM) | 0.03 µg/mL (≈ 0.0209 µM) | 0.8 mg/kg | solubility [8]: 340 µg/mL (≈ 237 µM)
